According to patent publication US8187586B2, “Methods of inducing apoptosis in hyperproliferative cells” (Case Western Reserve University, priority 2001, dated 2012):

Experiments:
[1] = system: LNCaP cells; assay: Western blot of endogenous KChAP (899 antibody) after apoptotic stimulus; type: cell-based, human
Description: (§1) Antibodies and Western Blotting Two antibodies were used to monitor intracellular levels of KChAP protein in control and Ad/KChAP infected cells. Antibody 899 was raised against a bacterial fusion protein which consisted of the C-terminal 169 amino acids of KChAP (Wible et al, 1998; Kuryshecv et al 2000). It recognizes both endogenous and overexpressed KChAP. Antibody 088 was raised against a peptide in the N-terminus of KChAP which is not present in PIAS3 (SPSPLASIPPTLLTPGTLL-GPKREVDMH, SEQ ID NO. 3). Antibody 088 recognizes only overexpressed, not endogenous, KChAP. Affinity purified antibodies were used in Western blotting. Other antibodies used for Western blotting to detect the following proteins were obtained from commercial sources: p53 (DO-1; Santa Cruz Biotech.), STAT1, STAT3, and cyclins A, B, and D3 (Transduction Labs), actin (clone AC-40, Sigma), phospho-p53 (ser 15) (Cell Signaling Tech. Inc.), PARP (we used two antibodies interchangeably which recognize both intact and cleaved PARP; one from Cell Signaling Inc., and one from Pharmingen), monoclonal Rb (Pharmingen), and p21 (WAF1 Ab1; Oncogene Res. Pdts).
(§2) Cells were lysed in a buffer consisting of 1% Triton-X 100, 150 mM NaCl, 50 mM Tris, 1 mM EDTA, pH 7.5 containing freshly added protease inhibitors (Complete, Roche Mol. Biol.) and the phosphatase inhibitors sodium fluoride (50 mM) and sodium orthovanadate (1 mM) for 30 minutes on ice. Insoluble debris was pelleted at 20,800×g for 10 minutes at 4° C. Lysate protein concentrations were determined by the BCA method (Pierce), and aliquots were boiled in a reducing SDS sample buffer to denature protein. SDS PAGE gels were blotted to PVDF membranes using a semi-dry blotting apparatus. Blots were blocked overnight in 5% milk (Bio-Rad) in PBS-T (PBS plus 0.1% Tween-20) at 4° C. Primary antibodies diluted in blocking buffer were incubated with the blots for one hour at room temperature (RT). Blots were washed with PBS-T and incubated with HRP (horseradish peroxidase)-conjugated secondary antibodies (Amersham Pharmacia) in blocking buffer for 1 hour at RT. Blots were developed with the ECL-Plus kit (Amersham Pharmacia).
(§3) We observed an increase in the amount of endogenous KChAP detected in cells exposed to STS. […] Multiple bands are detected in both cell lysates with the 899 antibody; a 68 kD doublet which is close to the predicted molecular weight of KChAP and PIAS3 and an upper band of about 85 kD. […] The signal then drops to control levels or lower after about 6 hours in LNCaP cells and around 4 to 6 hours in Jurkat cells. This peak in immunoreactivity largely precedes detection of PARP cleavage, a marker for apoptosis. […] There was no change in the 85 kD band. […]

[2] = system: Jurkat cells; assay: as above; type: cell-based; conditions: for signal of the 68 kD KChAP doublet (899 antibody): STS 1 μM
Description: as §1, §2, §3

[3] = system: prostate cancer cells and breast cancer cells versus cardiomyocytes; assay: Sensitivity of cancer versus non-cancerous cells to KChAP overexpression; type: cell-based

CC[C@@]1(O)C(=O)OCc2c1cc1n(c2=O)Cc2cc3ccccc3nc2-1 [camptothecin]
pattern of KChAP immunoreactivity after apoptotic inducing drug ([1]; cell line not specified, data not shown): the same pattern was also obtained

CN[C@@H]1C[C@H]2O[C@@](C)([C@@H]1OC)n1c3ccccc3c3c4c(c5c6ccccc6n2c5c31)C(=O)NC4 [staurosporine]
signal of the 68 kD KChAP doublet (899 antibody) ([1]; LNCaP, STS 1 μM): immunoreactivity increases | time after which KChAP signal drops to control levels or lower ([1]; LNCaP, STS 1 μM): about 6 hours | signal of the 68 kD KChAP doublet (899 antibody) ([1]; LNCaP, STS 1 μM, listed as STS): increased as early as one hour after the addition of STS | KChAP content of Jurkat cells [2]: greatly increases their KChAP content | apoptosis in Jurkat cells [2]: causes apoptosis | signal of the 68 kD KChAP doublet (899 antibody) [2]: immunoreactivity increases | signal of the 68 kD KChAP doublet (899 antibody) ([2]; listed as STS): increased as early as one hour after the addition of STS

B1: KChAP: potassium channel modulatory protein, human sequence SEQ ID NO:2, overexpressed in cells (protein, listed as Homo sapiens)
chain: MKIKELYRRRFPRKTLGPSDLSLLSLPPGTSPVGSPGPLAPIPPTLLAPGTLLGPKREVDMHPPLPQPVHPDVTMKPLPFYEVYGELIRPTTLASTSSQRFEEAHFTFALTPQQVQQILTSREVLPGAKCDYTIQVQLRFCLCETSCPQEDYFPPNLFVKVNGKLCPLPGYLPPTKNGAEPKRPSRPINITPLARLSATVPNTIVVNWSSEFGRNYSLSVYLVRQLTAGTLLQKLRAKGIRNPDHSRALIKEKLTADPDSEVATTSLRVSLMCPLGKMRLTVPCRALTCAHLQSFDAALYLQMNEKKPTWTCPVCDKKAPYESLIIDGLFMEILSSCSDCDEIQFMEDGSWCPMKPKKEASEVCPPPGYGLDGLQYSPVQGGDPSENKKKVEVIDLTIESSSDEEDLPPTKKHCSVTSAAIPALPGSKGVLTSGHQPSSVLRSPAMGTLGGDFLSSLPLHEYPPAFPLGADIQGLDLFSFLQTESQHYGPSVITSLDEQDALGHFFQYRGTPSHFLGPLAPTLGSSHCSATPAPPPGRVSSIVAPGGALREGHGGPLPSGPSLTGCRSDIISLD
sensitivity of cancer cells relative to non-cancerous cells such as cardiomyocytes [3]: about ten times more sensitive
